Tested on: cellules leucémiques L 1210
Assay: In vitro cytotoxicity: growth inhibition of L 1210 leukemia cells (Coulter count)
Type: cell-based, souris
Conditions: Mus musculus, L1210, 48 h, read-out: CI50 après 48 h de culture
Procedure: La détermination de la cytotoxicité in vitro sur les cellules leucémiques L 1210 est la méthode utilisée pour sélectionner les molécules potentiellement antitumorales. Le protocole mis en oeuvre est le suivant :
les cellules leucématiques L 1210 adaptées à la culture en suspension stationnaire sont entretenues dans du milieu RPMI 1640 (commercialisé par Seromed) additionné de 20 % de sérum de cheval décomplémenté, L-glutamine (2 mM), pénicilline (200 U/ml), streptomycine (50µg/ml) et cultivées à 37° C dans une atmosphère à 5 % de C02. Les cultures testées par la méthode de BARILE (BARILE M.F. Mycoplasmal contamination of cell culture, in Contamination in Tissue Culture, J. Fogh (ed.) Acad. Press, 132-156, 1973) sont exemptes de contaminations bactériennes et mycoplasmiques.
Pour les expérimentations, les cellules sont ensemencées à la concentration de 0,8.10^5 cellules/ml et cultivées par 2 ml dans des flacons de 15 ml. Les substances à étudier sont dissoutes dans du DMSO (1 % final) dont on a préalablement vérifié l'innocuité. Des quantités croissantes de produit à tester sont ajoutées au temps 0 et des numérations sont faites au compteur COULTER après 24 et 48 heures de culture. Des séries de contrôle sont effectuées avec des quantités de DMSO équivalentes à celles des séries traitées.
Le temps de doublement des cellules témoins est approximativement de 12 heures.
La cytotoxicité est déterminée d'après l'inhibition de croissance des cellules L 1210, calculée par rapport aux témoins correspondants selon la formule : [formula] • T = concentration de cellules non traitées, • t = concentration de cellules traitées.
La concentration de produit qui diminue la croissance cellulaire de 50 % (Clso) est calculée d'après la méthode des régressions linéaires en coordonnées log-probit.
Lorsque la Cl50 est voisine de la micromolarité (égale ou inférieure à 1 µM), il existe une présomption d'activité antitumorale et les essais in vivo indiqués ci-après sont effectués.
A titre d'exemple, la CI50 mesurée 48 heures après traitement des cellules par les composés de l'invention testés est la suivante : […]

CN(C)CCCNc1ncnc2c1C(=O)C(N1CC1)=C(N1CC1)C2=O [composé 63]
IC50: 2.7 nM
